In the test the test system is NF-κB. The experiment in a line: NF-κB luciferase reporter assay in A549/NF-κBLuc cells stimulated with IL-1β. The note with it: compound added 1 hour before IL-1β, 3 hours more incubation, luciferase activity as index; for IC50: Homo sapiens, A549, A549/NF-κBLuc cells. The class given is cell-based, human. Here is the method: Effects of Compounds on Human Lung Cancer A549 Cells (A549/NF-κBLuc) Stably Transfected with Luciferase Plasmid (pNFκB-Luc, Stratagene, U.S.A.) Having the NF-κB Regulatory Sequence
Using lipofectamine (Lifetech Oriental K.K., Tokyo), pNFκB-Luc were cotransfected with pSV2neo (Clontech, U.S.A.) into A549 cells (ATCC CCL185) according to the conventional method, and A549/NF-κBLuc stably transfected with pNFκB-Luc were selected by adding G418 sulfate (1 mg/ml, Lifetech Oriental K.K.) to the culture medium.
A compound prepared in an Example was added to A549/NF-κBLuc, then IL-1β which was able to activate the NF-κB was added at 1 hour thereafter and incubation was continued for 3 hours more. It has been made clear by using a luciferase activity as an index that the compound obtained in the Example suppresses the activation of NF-κB by stimulated with IL-1β.

As usually defined, the IC50 is the concentration that inhibits the measured activity by half. Low readings indicate greater potency in that assay, high ones weaker potency in that assay.

In the case of `COC1=C(OC)C(=O)C(Cc2ccc(-c3cccc(OC)c3)c(C(=O)Nc3ccc(OC)cc3)c2)=C(C)C1=O` [Example 67, N-[5-(5,6-Dimethoxy-3-methyl-1,4-benzoquinon-2-yl)methyl-2-(3-methoxyphenyl)benzoyl]-4-methoxyaniline], the IC50 was greater than 45 µg/mL.

`COC1=C(OC)C(=O)C(Cc2ccc(-c3ccccc3OC)c(C(=O)Nc3ccc(OC)cc3)c2)=C(C)C1=O` [Example 68, N-[5-(5,6-Dimethoxy-3-methyl-1,4-benzoquinon-2-yl)methyl-2-(2-methoxyphenyl)benzoyl]-4-methoxyaniline] registered an IC50 greater than 45 µg/mL. The molecule `COC1=C(OC)C(=O)C(Cc2cccc(C(=O)Nc3ccc(C(F)(F)F)cc3)c2-c2ccncc2)=C(C)C1=O` [Example 73, N-[3-(45,6-Dimethoxy-3-methyl-1,4-benzoquinon-2-yl)methyl-2-(4-pyridyl)benzoyl]-4-trifluoromethylaniline] had a half-maximal inhibitory concentration (IC50) greater than 30 µg/mL. As to `COC1=C(OC)C(=O)C(Cc2ccc(-c3ccncc3)c(C(=O)N[C@@H](C)c3ccccc3)c2)=C(C)C1=O` [Example 74a, (S)-N-[5-(5,6-Dimethoxy-3-methyl-1,4-benzoquinon-2-yl)methyl-2-(4-pyridyl)benzoyl]-1-phenylethylamine], the concentration for half-maximal inhibition (IC50) was greater than 45 µg/mL. As to `COC1=C(OC)C(=O)C(Cc2ccc(-c3ccncc3)c(C(=O)N[C@@H](C)c3ccccc3)c2)=C(C)C1=O` [Example 74b, (S)-N-[5-(5,6-Dimethoxy-3-methyl-1,4-benzoquinon-2-yl)methyl-2-(4-pyridyl)benzoyl]-1-phenylethylamine], the IC50 value (A549/NF-κBLuc cells) was greater than 45 µg/mL. For the molecule `COC1=C(OC)C(=O)C(Cc2ccc(-c3ccncc3)c(C(=O)N[C@H](C)c3ccccc3)c2)=C(C)C1=O` [Example 75a, (R)-N-[5-(5,6-Dimethoxy-3-methyl-1,4-benzoquinon-2-yl)methyl-2-(4-pyridyl)benzoyl]-1-phenylethylamine], the IC50 is greater than 45 µg/mL. Take `COC1=C(OC)C(=O)C(Cc2ccc(-c3ccncc3)c(C(=O)NC3CCCCC3)c2)=C(C)C1=O` [Example 76a, N-[5-(5,6-Dimethoxy-3-methyl-1,4-benzoquinon-2-yl)methyl-2-(4-pyridyl)benzoyl]cyclohexyl-amine]: the IC50 was greater than 45 µg/mL.

`COC1=C(OC)C(=O)C(Cc2ccc(-c3ccncc3)c(C(=O)NC3CCCC3)c2)=C(C)C1=O` [Example 77a, N-[5-(5,6-Dimethoxy-3-methyl-1,4-benzoquinon-2-yl)methyl-2-(4-pyridyl)benzoyl]cyclopentylamine]: the half-inhibitory concentration (IC50) was greater than 45 µg/mL. With `COC1=C(OC)C(=O)C(Cc2ccc(-c3ccncc3)c(C(=O)NC3CC3)c2)=C(C)C1=O` [Example 78a, N-[5-(5,6-Dimethoxy-3-methyl-1,4-benzoquinon-2-yl)methyl-2-(4-pyridyl)benzoyl]cyclopropyl-amine], the half-inhibitory concentration (IC50) was greater than 45 µg/mL.

`CCC(CC)NC(=O)c1cc(CC2=C(C)C(=O)C(OC)=C(OC)C2=O)ccc1-c1ccncc1` [Example 79a, N-[5-(5,6-Dimethoxy-3-methyl-1,4-benzoquinon-2-yl)methyl-2-(4-pyridyl)benzoyl]-1-ethylpropylamine] gave an IC50 greater than 45 µg/mL.

(Values after patent US7122543B2, “Substituted benzoic acid derivatives having NF-κB inhibiting action” (Daiichi Suntory Pharma Co., Ltd., priority 2001, dated 2006).)
